From US5631401A, “Inhibitors of protein farnesyltransferase and squalene synthase” (Abbott Laboratories, priority 1995, dated 1997) come the findings set out here.

The target in assay [1] is T1, Rat brain protein farnesyltransferase (Rattus norvegicus, UniProt Q02293+Q04631).
T1 construct: The enzyme was purified according to Reiss, Y., et al., Cell, 62: 81-88 (1990), utilizing steps one through three; from tissue; host or cells: rat brain
Nature of the assay: In vitro inhibition of protein farnesyltransferase (biotin-lamin substrate, scintillation proximity assay). The assay is classed as biochemical. The conditions noted are these: for inhibition at 10 µM: compared to uninhibited control; for inhibition at 1 µM: 1 μM (footnote *), read-out: % Inhibition at 1 μM (protein farnesyltransferase, values marked *). How it is done:
In vitro inhibition of protein farnesyltransferase may be measured by the following procedure. (Procedures for determination of the inhibition of farnesylation of the oncogene protein Ras are described by Goldstein, et al., J. Biol. Chem., 266: 15575-15578 (1991) and by Singh in U.S. Pat. No. 5,245,061 both of which are incorporated herein by reference.)
Rat brain protein farnesyltransferase activity was measured using the biotin-lamin substrate (which is known to undergo farnesylation in a manner analogous to Ras protein) and radioactive farnesyl diphosphate provided by Amersham Life Science in their commercial scintillation proximity assay kit for the determination of farnesyltransferase. The enzyme was purified according to Reiss, Y., et al., Cell, 62: 81-88 (1990), utilizing steps one through three. The specific activity of the enzyme was approximately 10 nmol substrate farnesylated/mg enzyme/hour. […]

Assay [2] deals with T2, Rat liver microsomal squalene synthase (Rattus norvegicus, UniProt Q02769).
T2 construct: Rat liver microsomes, the source of enzyme, were prepared; from tissue; host or cells: rat liver microsomes
T2 sequence (Q02769 1-416): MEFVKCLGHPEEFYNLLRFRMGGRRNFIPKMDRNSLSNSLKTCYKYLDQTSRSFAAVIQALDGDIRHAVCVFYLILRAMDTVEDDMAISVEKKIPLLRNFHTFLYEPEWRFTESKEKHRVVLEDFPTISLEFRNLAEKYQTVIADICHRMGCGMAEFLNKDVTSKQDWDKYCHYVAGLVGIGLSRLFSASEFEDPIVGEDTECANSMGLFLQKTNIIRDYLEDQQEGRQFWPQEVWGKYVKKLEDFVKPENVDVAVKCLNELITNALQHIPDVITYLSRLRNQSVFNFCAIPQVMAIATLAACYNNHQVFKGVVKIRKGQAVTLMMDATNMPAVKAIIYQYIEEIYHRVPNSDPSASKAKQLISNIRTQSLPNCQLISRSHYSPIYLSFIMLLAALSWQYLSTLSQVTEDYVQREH
Nature of the assay: In vitro inhibition of squalene synthase (rat liver microsomes, 3H-farnesyl diphosphate). It counts as biochemical. The note with it: for inhibition at 1 µM: compared to controls with no test compound. How it is done: In vitro inhibition of squalene synthase may be measured by the following procedure.
Rat liver microsomal squalene synthase activity was measured using radioactive farnesyl diphosphate as a substrate and quantitating squalene synthesis by counting the radioactive squalene formed.
Rat liver microsomes, the source of enzyme, were prepared according to the method of Gillies, P. J., et al., Exp. Molec. Pathol. 44: 329-339 (1986), a modification of the procedure of Erickson, S. K., and Cooper, A. D., Metabolism, 29: 991-996 (1980). Approximately 30 μg of microsomal protein was incubated for 10 minutes at 37° C. with 11 μM of ^3 H-farnesyl diphosphate, 49 mCi/mmol, and test compound in the presence of squalene (2 μL), Mg^++, KF, reduced B-nicotinamide adenine dinucleotide phosphate, dithiothreitol, and K2 PO4, pH 7.35, in a total volume of 200 μL. Oxygen was excluded from the closed incubation tube by degassing with nitrogen. The reaction was terminated by the addition of ethanolic KOH and after degassing with N2, the microsomal membranes were solubilized by heating at 60° C. for 30 minutes. The squalene was extracted into hexane, and the squalene was separated from all other radioactive molecules by passage over an activated alumina column. The solution was collected in scintillation vials, evaporated to dryness, liquid scintillation fluid was added, and the radioactivity was determined in a liquid scintillation counter. […]

Molecule `O=C(O)[C@H]1[C@H](C(=O)N(Cc2ccc(Oc3ccccc3)cc2)C2CCCC2)[C@H](C(=O)O)[C@H]1C(=O)N(Cc1ccc(Oc2ccccc2)cc1)C1CCCC1` [Example 97, (1α,2β,3β,4α)-1,3-Di[N-cyclopentyl-N-(4-phenoxybenzyl)aminocarbonyl]cyclobutane-2,4-dicarboxylic acid] returned an inhibition at 10 µM in assay [1] of 32%. In assay [2], this molecule came in with an inhibition at 1 µM of 49%.
In the same order, the values of `O=C(O)[C@H]1[C@H](C(=O)N(CCCc2ccccc2)Cc2ccc(Oc3ccccc3)cc2)[C@H](C(=O)O)[C@H]1C(=O)N(CCCc1ccccc1)Cc1ccc(Oc2ccccc2)cc1` [Example 79, (1α,2β,3β,4α)-1,3-Di [N-(4-phenoxybenzyl)-N-(3-phenyl-1-propyl)aminocarbonyl]cyclobutane-2,4-dicarboxylic acid] are 43% and 54%.
`O=C(O)C1C(C(=O)N(Cc2ccc(Oc3ccccc3)cc2)Cc2ccco2)C(C(=O)O)C1C(=O)N(Cc1ccc(Oc2ccccc2)cc1)Cc1ccco1` (stereo not drawn) [Example 72, (1α,2β,3β,4α)-1,3-Di[N-(furan-2-ylmethyl)-N-(4-phenoxybenzyl)aminocarbonyl]cyclobutane-2,4-dicarboxylic acid]: the figures for the inhibition at 1 µM in assay [1] and in assay [2] were 82% and 32%, respectively.
Take `O=C(O)[C@H]1[C@H](C(=O)N(Cc2ccc(Oc3ccccc3)cc2)Cc2cccs2)[C@H](C(=O)O)[C@H]1C(=O)N(Cc1ccc(Oc2ccccc2)cc1)Cc1cccs1` [Example 73, (1α,2β,3β,4α)-1,3-Di[N-(thien-2-ylmethyl)-N-(4-phenoxybenzyl)aminocarbonyl]cyclobutane-2,4-dicarboxylic acid]: the inhibition at 1 µM in assay [1] is 92%; in assay [2], 24%.
`CC[C@@H](C)N(Cc1ccc(Oc2ccccc2)cc1)C(=O)[C@H]1[C@H](C(=O)O)[C@H](C(=O)N(Cc2ccc(Oc3ccccc3)cc2)[C@H](C)CC)[C@H]1C(=O)O` [Example 102, (1α,2β,3β,4α)-1,3-Di[N-((2R)-Sec-butyl)-N-(4-phenoxybenzyl)aminocarbonyl]cyclobutane-2,4-dicarboxylic acid] had an inhibition at 10 µM in assay [1] of 37%. 1 µM produced 48% inhibition in assay [2].
With `COC(=O)CN(Cc1ccc(Oc2ccccc2)cc1)C(=O)[C@H]1[C@H](C(=O)O)[C@H](C(=O)N(CC(=O)OC)Cc2ccc(Oc3ccccc3)cc2)[C@H]1C(=O)O` [Example 42, (1α,2β,3β,4α)-1,3-Di[N-methoxycarbonylmethyl-N-(4-phenoxybenzyl)aminocarbonyl]cyclobutane-2,4-dicarboxylic acid], in assay [1], the inhibition at 10 µM was found to be 67%. In addition, testing at 1 µM in assay [2] gave an inhibition of 36%.
In the same order, the values of `O=C(O)CCN(Cc1ccc(Oc2ccccc2)cc1)C(=O)C1C(C(=O)O)C(C(=O)N(CCC(=O)O)Cc2ccc(Oc3ccccc3)cc2)C1C(=O)O` (stereo not drawn) [Example 44, (1α,2β,3β,4α)-1,3-Di[N-(2-carboxyethyl)-N-(4-phenoxybenzyl)aminocarbonyl]cyclobutane-2,4-dicarboxylic acid] are 81% and 30%.
In the same order, the values of `CCN(Cc1ccc(Oc2ccccc2)cc1)C(=O)[C@H]1[C@H](C(=O)O)[C@H](C(=O)N(CC)Cc2ccc(Oc3ccccc3)cc2)[C@H]1C(=O)O` [Example 17, (1α,2β,3β,4α)-1,3-Di(N-ethyl-N-(4-phenoxybenzyl)aminocarbonyl)cyclobutane-2,4-dicarboxylic acid] are 49% and 52%.
In the case of `CCCN(Cc1ccc(Cc2ccccc2)cc1)C(=O)[C@H]1[C@H](C(=O)O)[C@H](C(=O)N(CCC)Cc2ccc(Cc3ccccc3)cc2)[C@H]1C(=O)O` [Example 26, (1α,2β,3β,4α)-1,3-Di(N-propyl-N-(4-(benzyl)benzyl)aminocarbonyl)cyclobutane-2,4-dicarboxylic acid], the inhibition at 10 µM in assay [1] was found to be 69%; in assay [2] (10 μM (footnote *), read-out: % Inhibition at 10 μM (squalene synthase, values marked *)) it was 33%.
